Experimental data as given in US20140163226A1, “NOVEL PYRIMIDINE DERIVATIVE AND PHARMACEUTICAL COMPOSITION INCLUDING SAME AS AN ACTIVE INGREDIENT” (HANMI PHARMACEUTICAL CO., LTD., priority 2011, published 2014).

Biological target: T1, DGAT1 (Homo sapiens, UniProt O75907)
T1 construct: host or cells: HepG2 cell homogenate (supernatant after sonication and 2000×g centrifugation)
T1 sequence (O75907 1-488): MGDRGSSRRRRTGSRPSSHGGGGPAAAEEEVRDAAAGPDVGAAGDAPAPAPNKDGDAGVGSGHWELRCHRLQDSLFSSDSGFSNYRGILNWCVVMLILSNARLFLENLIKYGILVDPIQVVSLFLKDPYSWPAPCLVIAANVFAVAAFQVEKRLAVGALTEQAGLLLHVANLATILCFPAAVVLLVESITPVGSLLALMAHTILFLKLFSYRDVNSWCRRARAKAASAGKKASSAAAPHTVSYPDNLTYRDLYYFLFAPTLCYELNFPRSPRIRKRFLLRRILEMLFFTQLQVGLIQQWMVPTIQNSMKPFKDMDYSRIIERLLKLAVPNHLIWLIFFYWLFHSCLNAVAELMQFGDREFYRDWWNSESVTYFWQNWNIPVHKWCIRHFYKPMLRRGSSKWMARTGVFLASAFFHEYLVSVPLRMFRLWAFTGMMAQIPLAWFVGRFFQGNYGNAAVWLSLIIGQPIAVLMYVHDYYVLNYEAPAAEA
Experiment: Assay for inhibition of DGAT1 activity (IC50), in vitro enzymatic assay using homogenates of HepG2 cell line
Format: biochemical
Settings: inhibitory activity against DGAT1; HepG2 protein (25 μg), 1,2-dioleoyl-sn-glycerol (30 μM), 14C oleoyl coenzyme A (10 μM), room temperature, 60 mins
Experimental: In order to identify DGAT1 inhibitors, in vitro enzymatic assays were performed by using homogenates of HepG2 cell line (ATCC, USA, HB-8065). Briefly stated, HepG2 cells were inoculated in 10% FBS-supplemented medium at 1.0×10^7 cells/well, cultured at 37° C., and harvested 72 hrs later. The harvested cells were lysed by ultrasonic treatment, and centrifuged for at 4° C. (2000×g, 10 mins) to remove any uncracked cells and impurities. The supernatant thus formed was obtained, and stored at −70° C. after its protein contents were quantitatively analyzed.
DGAT1 activation was assayed by a modification of the method described by Coleman (Methods in Enzymology, 1992, 209, 98-102). The compound of the present invention ([…]) was incubated with HepG2 protein (25 μg), MgCl2 (150 mM) and 1,2-dioleoyl-sn-glycerol (30 μM) in a total assay volume of 200 μL in plastic tubes.
The reaction was started by adding ^14C oleoyl coenzyme A (10 μM final concentration) and incubated at room temperature for 60 mins. The reaction was ended when a mixed solution (300 μL) of 2-propanol and heptane (7:1) was added thereto. Radioactive triolein product was separated into the organic phase by adding heptane (200 μL) and 1.0 M carbonate buffer (200 μL, pH 9.5). DGAT1 activity was quantified by counting aliquots of the upper heptane layer by liquid […].

IC50: < 1 nM
SMILES: O=C(Nc1ccc(-c2ncnc3c(-c4ccc(C(=O)O)cc4)csc23)cc1)Nc1cccc(Cl)c1 [Example 3, 4-(4-(4-(3-(3-chlorophenyl)ureido)phenyl)thieno[3,2-d]pyrimidin-7-yl)benzoic acid]
